Legend:
[1] = test system: intracellular Ras farnesyl transferase, Rat2 cell line; test: Intracellular Ras farnesyl transferase inhibiting activity in transformed Rat2 cells (35S-methionine labelling, Y13-259 immunoprecipitation, SDS-PAGE); format: cell-based; settings: Rattus norvegicus; transformed Rat2 fibroblast cell line; concentration inhibiting 50% of farnesyl binding of Ras protein; read-out: Ftase CIC50
In short: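 Rat2 fibroblasts transformed with H-Ras, or with H-Ras carrying the K-Ras polybasic lysine C-terminus, were treated with compound (1% DMSO). After 4 h they were labelled for 20 h with 150 μCi/ml 35S-methionine. Lysates were immunoprecipitated with Y13-259, run on 13.5% SDS-PAGE and autoradiographed; CIC50 is the concentration halving farnesylated versus unfarnesylated Ras band intensity.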

Ras farnesyl transferase = biological target: T1, Ras farnesyl transferase (Homo sapiens, UniProt P49354+P49356); test: Ras farnesyl transferase inhibiting activity (filter-binding, tritium-farnesylpyrophosphate, Ras-CVLS substrate); format: biochemical; settings: recombinant Ras farnesyl transferase, 30 minutes at 37° C., read-out: Ftase IC50
T1 construct: made in house

[2] = biological target: T2, Geranylgeranyl transferase (Bos taurus, UniProt P29702+Q5EAD5); test: Geranylgeranyl transferase inhibiting activity (geranylgeranyl pyrophosphate, Ras-CVIL substrate); format: biochemical; settings: geranylgeranyl transferase purified from bovine brain, read-out: GGtase IC50
T2 construct: Geranylgeranyl transferase was purified from bovine brain; from tissue; host or cells: bovine brain
In short: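 Bovine-brain-purified enzyme run as in the farnesyl transferase assay, with geranylgeranyl pyrophosphate and Ras-CVIL substrate protein under similar reaction conditions.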

SMILES	IC50 [1]	IC50 (Ras farnesyl transferase)	IC50 [2]
CC1(c2cccc3ccccc23)C(=O)N(CCCn2ccnc2)C(=O)N1Cc1c(F)c(F)c(F)c(F)c1F (stereo not drawn) [Compound 17, 1-(pentafluoro-benzyl)-3-(3-imidazol-1-yl-propyl)-5-methyl-5-naphthalen-1-yl-imidazolidin-2,4-dione]	< 20 µM	1.5 µM	> 10 µM
CC1(c2cccc3ccccc23)C(=O)N(CCCc2cnc[nH]2)C(=O)N1CC(=O)NC(Cc1cccs1)C(=O)O (stereo not drawn) [Compound 9, 2-(2-{3-[3-(3H-imidazol-4-yl)-propyl]-5-methyl-5-naphthalen-1-yl-2,4-dioxo-imidazolidin-1-yl}-acetamino)-3-thiophen-2-yl-propionic acid]	< 1 µM	0.015 µM	80 µM
CC1(c2cccc3ccccc23)C(=O)N(CCCn2ccnc2)C(=O)N1Cc1cccc(C(F)(F)F)c1 (stereo not drawn) [Compound 22, 1-(3-trifluoromethyl-benzyl)-3-(3-imidazol-1-yl-propyl)-5-methyl-5-naphthalen-1-yl-imidazolidin-2,4-dione]	< 20 µM	1.7 µM	> 10 µM
CC1(c2cccc3ccccc23)NC(=O)N(Cc2cncn2Cc2ccc(C#N)cc2)C1=O (stereo not drawn) [Compound 59, 4-[5-(4-methyl-4-naphthalen-1-yl-2,5-dioxo-imidazolidin-1-ylmethyl)-imidazol-1-ylmethyl]-benzonitrile]	< 20 µM	0.44 µM	> 10 µM
CC1(c2cccc3ccccc23)C(=O)N(CCCn2ccnc2)C(=O)N1Cc1ccc(S(C)(=O)=O)c(C#N)c1 (stereo not drawn) [Compound 30, 5-[3-(3-imidazol-1-yl-propyl)-5-methyl-5-naphthalen-1-yl-2,4-dioxo-imidazolidin-1-ylmethyl]-2-methylsulfonyl-benzonitrile]	< 20 µM	0.725 µM	> 10 µM

Source: patent US6384061B1, “Hydantoin compounds and methods related thereto” (LG Chemical Ltd., priority 2000, dated 2002)
